These are literature values, as cited in article PMC4338372 (FEBS Open Bio, 2015).

In the data set the test system is Src family kinase. The following applies: macrophages; inhibition of Src family kinase.

As to `CC(C)(C)n1nc(-c2ccc(Cl)cc2)c2c(N)ncnc21` [PP2], the phagocytosis efficiency entry is recorded as “decreases phagocytosis efficiency in macrophages”.
